Measured values from patent publication US20050080090A1, “Naphthalene derivatives” (priority 1993, published 2005).

| melting point | Compound |
| --- | --- |
| 198 to 200 °C | CN1CCN(c2cccc3ccc(Nc4ncccc4N)cc23)CC1 (hydrate or solvate) [Example 29, 7-(3-Amino-2-pyridylamino)-1-(4-methyl-1-piperazinyl)-naphthalene] |
| 147 to 148 °C | CN1CCN(c2cccc3ccc(NC(=O)c4cccc(Cl)c4)cc23)CC1 [Example 6, 7-(3-Chlorobenzamido)-1-(4-methyl-1-piperazinyl)-naphthalene] |
